We go through one compound from article PMC12670426 (Journal of Medicinal Chemistry, 2025).

Data set [1] can be described thus: Plasma stability assay, human plasma. It counts as in vitro ADME. The conditions noted are these: pooled plasma, 37 °C. As to the method:
(§1) Test compounds (10 μM) were incubated with mouse, rat, or human pooled plasma from 50 donors (Biowest) at 37 °C for 20, 60, and 120 min. Reactions were terminated by adding four volumes of ice-cold methanol, followed by vigorous mixing. Samples were kept at −20 °C for 30 min and then stored at 4 °C overnight. The next day, samples were centrifuged, and supernatants were diluted with four volumes of 30% methanol in water. Zero time points were prepared by adding ice-cold methanol to the compound prior to the addition of plasma. Samples were then analyzed on an Echo MS system (SCIEX) using multiple reaction monitoring (MRM). The only exception was compound 3af, which was analyzed by LC–MS/MS (SCIEX 6500 triple quadrupole) due to its weak ionization in Echo-MS.

A short description of data set [2]: Plasma stability assay, mouse plasma. Format: in vitro ADME. The conditions noted are these: 37 °C. As to the method: as §1
Data set [3] is described as follows: Plasma stability assay, rat plasma. Format: in vitro ADME. The conditions noted are these: 37 °C. As to the method: as §1
Data set [4] is described as follows: Microsomal stability assay, human liver microsomes. It counts as in vitro ADME. Conditions: pooled liver microsomes, pH 7.4, human liver microsomes 0.5 mg/mL, NADPH. As to the method:
(§2) Microsomal stability was determined using 0.5 mg/mL of pooled human, mouse, or rat liver microsomes (Thermo Fisher Scientific) in 90 mM TRIS-Cl buffer (pH 7.4) containing 2 mM NADPH and 2 mM MgCl2. Test compounds (10 μM) were added, and the resulting mixture was incubated at 37 °C for 10, 60, 120, and 180 min. The reactions were terminated by the addition of four volumes of ice-cold methanol, followed by vigorous mixing. The samples were left at −20 °C for 30 min and then stored at 4 °C overnight. The next day, samples were centrifuged, and supernatants were diluted with four volumes of 30% methanol in water. Zero time points were prepared by adding ice-cold methanol to the mixture of compounds and cofactors prior to the addition of microsomes. The samples were then analyzed using the Echo-MS system (SCIEX) with MRM transition monitoring, except for compound 3af, which was analyzed by LC–MS/MS as described in the plasma stability assay.

Data set [5] is described as follows: Microsomal stability assay, mouse liver microsomes. It counts as in vitro ADME. The conditions noted are these: pooled liver microsomes, pH 7.4, mouse liver microsomes 0.5 mg/mL, NADPH. As to the method: as §2
In general terms: Microsomes from liver hold many membrane-bound enzymes, among them those of drug oxidation.

A short description of data set [6]: Microsomal stability assay, rat liver microsomes. Format: in vitro ADME. Conditions: pooled liver microsomes, pH 7.4, rat liver microsomes 0.5 mg/mL, NADPH. As to the method: as §2
The nature of data set [7]: Cytotoxicity assay, HEK293. Format: cell-based. Conditions: human, HEK293 cells, viability dye, flow cytometry. As to the method: (§3) To evaluate in vitro cytotoxicity and support its potential application in inflammatory and fibrotic disease models, the following panel of cell lines, representing the relevant biological systems, was used: HEK293, HepG2, THP1, Jurkat E6.1, and LX2. HEK293, HepG2, and Jurkat E6.1 cells were seeded at 400,000 cells/mL, THP1 cells at 500,000 cells/mL, and LX2 cells at 200,000 cells/mL in 96-well plates (cell culture-treated, VWR) in 100 μL/well. Cells were treated with the tested compounds in a serial dilution (300, 100, 33.3, 11.1, and 3.7 μM) for 24 h. Untreated cells served as negative controls to establish the baseline viability threshold. Cell viability was assessed using a viability dye (Zombie Violet Fixable Viability Kit, BioLegend) following the manufacturer’s instructions and analyzed by flow cytometry (see below).
(§4) Cells or beads from screening assays prepared for flow cytometry were analyzed by the CytoFlex S instrument (Beckman Coulter). Data acquisition was performed using CytExpert software (v2.5, Beckman Coulter). Debris was excluded by forward and side scatter gating, followed by doublet exclusion. Data were analyzed using FlowJo software (v10, BD Biosciences).

Data set [8] in a line: Cytotoxicity assay, HepG2. Conditions: human, HepG2 cells, viability dye, flow cytometry. It counts as cell-based. As to the method: as §3, §4
Data set [9] is described as follows: Cytotoxicity assay, THP1. The conditions noted are these: human, THP1 cells, viability dye, flow cytometry. It counts as cell-based. As to the method: as §3, §4
(In general: A flow cytometer gives signals particle by particle.)

Data set [10] can be described thus: Cytotoxicity assay, Jurkat E6.1. It counts as cell-based. Conditions: human, Jurkat E6.1 cells, viability dye, flow cytometry. As to the method:
as §3, §4

The nature of data set [11]: Cytotoxicity assay, LX2. The conditions noted are these: human, LX2 cells, viability dye, flow cytometry. Format: cell-based. As to the method: as §3, §4
Data set [12] is described as follows: Cytotoxicity assay, panel of five human cell lines. Format: cell-based. The conditions noted are these: HEK293, HepG2, THP-1, Jurkat E6.1 and LX2 cells; summary in text across panel of five human cell lines. As to the method:
as §3, §4

Data set [13] addresses T1, intracellular Gal-3 in THP1 cells (Homo sapiens, UniProt P17931).
T1 construct: Untreated cells served as negative and baseline controls representing maximum intracellular Gal-3 levels; endogenous in cells; host or cells: THP1 (monocyte-like or PMA-differentiated macrophage-like)
The data set can be described thus: Intracellular Gal-3 target engagement in THP1 cells (flow cytometry, MFI). Format: cell-based. The conditions noted are these: 2 h. As to the method: THP1 cells were used to assess the binding of the tested compounds to Gal-3. Cells were either maintained in suspension as undifferentiated monocyte-like cells or differentiated into macrophage-like cells by overnight treatment with phorbol 12-myristate 13-acetate (PMA, Sigma-Aldrich) at a final concentration of 10 ng/mL. […] Untreated cells served as negative and baseline controls representing maximum intracellular Gal-3 levels. Cells were then harvested and intracellularly stained either with galectin-3 monoclonal antibody eF660 (Invitrogen, Thermo Fisher Scientific) or a relevant isotype antibody (Invitrogen, Thermo Fisher Scientific) for flow cytometric analyses (see below). A dose-dependent decrease in Gal-3 signal upon compound treatment was used to assess intracellular target engagement expressed as median fluorescent intensity (MFI).
as §4

The subject of data set [14] is LPS-stimulated macrophage-like THP1 cells (TNFα secretion). Description: Anti-inflammatory potential: TNFα secretion in LPS-stimulated PMA-differentiated THP1 cells. It counts as cell-based, human. The conditions noted are these: (+)PMA THP1, 1 μg/mL LPS, 24 h, up to 300 μM. As to the method:
Cells were differentiated overnight into macrophage-like phenotypes by treatment with 10 ng/mL PMA and subsequently stimulated with 1 μg/mL lipopolysaccharide (LPS; Invitrogen, Thermo Fisher Scientific) to induce a proinflammatory response. […] After 24 h of LPS and compound exposure, cell culture supernatants were collected and analyzed for TNFα levels using a bead-based multiplex immunoassay (ProcartaPlex Human Basic Kit and TNFα Human ProcartaPlex Simplex Kit, both Invitrogen, Thermo Fisher Scientific). Flow cytometry readout was used as previously described. TNFα concentrations were calculated using a standard curve generated in GraphPad Prism 10 (GraphPad Software, San Diego, CA). Cells or beads from screening assays prepared for flow cytometry were analyzed by the CytoFlex S instrument (Beckman Coulter). Data acquisition was performed using CytExpert software (v2.5, Beckman Coulter). Debris was excluded by forward and side scatter gating, followed by doublet exclusion. Data were analyzed using FlowJo software (v10, BD Biosciences).

The target in data set [15] is Gal-1. The conditions noted are these: previously reported inhibitor, Figure 1A; ref Galecto Biotech; cited from earlier work.
Data set [16] concerns the target Gal-3C. The conditions noted are these: read-out: Kd (Gal-3C); previously reported inhibitor, Figure 1A; ref Galecto Biotech; cited from earlier work.

T1 sequence (P17931 whole entry): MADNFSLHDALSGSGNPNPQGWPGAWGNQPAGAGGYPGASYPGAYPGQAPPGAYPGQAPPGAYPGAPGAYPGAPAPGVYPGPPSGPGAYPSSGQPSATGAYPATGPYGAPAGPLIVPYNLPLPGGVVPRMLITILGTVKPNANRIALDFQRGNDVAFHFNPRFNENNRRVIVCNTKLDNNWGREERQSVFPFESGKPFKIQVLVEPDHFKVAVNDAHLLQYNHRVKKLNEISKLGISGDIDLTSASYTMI

In general, microsomal CLint refers to a measure of how fast metabolising enzymes remove a compound, apart from limits set by blood flow. Read a low microsomal CLint as greater metabolic stability. What is called CC50 is the concentration giving 50% cytotoxicity. Read a low CC50 as harm at low concentration. As a reminder, the Kd is the constant that tells how readily two partners part at equilibrium. On to `OC[C@H]1O[C@@H](S[C@@H]2O[C@H](CO)[C@H](O)[C@H](n3cc(-c4cccc(F)c4)nn3)[C@H]2O)[C@H](O)[C@@H](n2cc(-c3cccc(F)c3)nn2)[C@H]1O` [GB0139, reference compound], for which the fraction remaining at 2 h, 10 μM in [1] was determined as 110 ± 5%; in data set [2], 68 ± 3%; in data set [3], 78 ± 8%. Besides, the values for the intrinsic clearance (microsomal CLint) at 10 μM in data set [4], in data set [5] and in data set [6] were 12 ± 6 µL/min/mg, 6 ± 5 µL/min/mg and less than 2 µL/min/mg, respectively. Moreover, the CC50 at 24 h in data set [7], in data set [8], in data set [9], in data set [10], in data set [11] and in data set [12] was greater than 300 µM each time. In addition, the “intracellular Gal-3 signal (MFI), macrophage-like THP1 cells” value in [13] ((+)PMA differentiated THP1, 3.7–300 μM) is listed as “reduced the Gal-3 signal”. Further, the “intracellular Gal-3 signal (MFI), monocyte-like THP1 cells” value in [13] ((−)PMA undifferentiated THP1, 3.7–300 μM) was “minimal effect”. Moreover, the “LPS-induced TNFα secretion” value in data set [14] was “effectively reduced TNFα secretion”. The dissociation constant (Kd) in [15] was 0.012 µM; in [16], 0.014 µM.
